Results: patent publication US20130158112A1, “COMPOSITIONS AND METHODS FOR INHIBITING BETA AMYLOID SECRETION” (priority 2011, published 2013)

Key:
Aβ secretion = test: Secreted total Aβ ELISA in conditioned media of H4βAPP695 wt cells; format: cell-based, human; conditions: for inhibition at 30 µM / inhibition at 10 µM: Homo sapiens, 24 h, H4βAPP695 wt cells; for inhibition at 30 µM: read-out: Total Aβ (% decrease) 30 μM Mean; for Aβ secretion inhibiting activity (structure activity summary): in words; for inhibition at 10 µM: read-out: Total Aβ (% decrease) 10 μM Mean
Procedure: H4βAPP695 wt cells, a human […] cell line stably transfected with a wtβAPP695 expression vector construct under the control of a CMV promoter (kindly provided by Dr. Chris Eckman from Mayo Clinic, Florida) were cultured as previously described. Twenty-four hours before drug treatment, the media was replaced with serum-free media. Cells were then incubated with drugs (dissolved in DMSO) or vehicle for 24 h for collection of conditioned media and cell lysates. For the PKC inhibitors experiment, three inhibitors were treated 30 min prior to drug challenge. Primary cortical neurons were prepared from embryonic day 18 APP and presenilin 1 (APPswe, PSEN1dE9) transgenic mice on the C57BL/6 genetic background (Jackson Laboratories, strain no. 5864) as previously described. THLE-3 human hepatoma cells (from ATCC) were plated in 24-well plates that were precoated with 10 μg/mL bovine serum albumin, 10 μg/mL fibronectin, and 30 μg/mL bovine type I collagen. The cells were grown in BEGM media (Clonetics) until confluent and treated with drugs at 20 μM for 24 h. This conditioned media was harvested, diluted 1:1 in serum-free medium, and incubated with H4βAPP695 wt cells for 24 h prior to analysis of secreted Aβ, which was compared to the effect of 10 μM drug treatments without prior incubation with the THLE-3 cells. Caco-2 cells (ATCC) were plated in 12-well plates with Transwell inserts (Costar) at 70000 cells per well and grown for 21 days. The media volume of the apical and basal chambers was 0.5 and 1.5 mL, respectively. Transepithelial resistance was measured in each well and found to be >160 Ω/cm^2. Drugs at 40 μM and 20 μg/mL of lucifer yellow were added in serum-free medium to the apical chamber. Four hours later, the basal chamber media was harvested and used to measure lucifer yellow fluorescence to confirm monolayer integrity as well as for treatment of H4βAPP695 wt cells for 24 h prior to analysis of secreted Aβ, which was compared to the effect of direct addition of 10 μM of the corresponding drug.

H4βAPP695 wt cells = test: Cytotoxicity by total cell protein content (BCA) of H4βAPP695 wt cells; conditions: cytotoxicity

| melting point | SMILES | inhibition at 30 µM (Aβ secretion) | Aβ secretion inhibiting activity (structure activity summary) (Aβ secretion) | Cell protein (% decrease) 10 μM Mean (H4βAPP695 wt cells) | Cell protein (% decrease) 30 μM Mean (H4βAPP695 wt cells) | inhibition at 10 µM (Aβ secretion) |
| --- | --- | --- | --- | --- | --- | --- |
| 46 to 47 °C | O=C(NCCSCc1cccc(NC(=O)C2CC2)c1)c1c(Cl)cccc1Cl [Compound 69, 2,6-Dichloro-N-(2-[3-(cyclopropanecarbonyl-amino)-benzylsulfanyl]-ethyl)-benzamide] | -2% | did not yield good activity | 3% | 3.2% | -21.4% |
| 174 to 176 °C | O=C(NCC[S+]([O-])Cc1cccc(Cl)c1)c1c(Cl)cccc1Cl (stereo not drawn) [Compound 71, 2,6-Dichloro-N-[2-(3-chloro-phenylmethanesulfinyl)-ethyl]-benzamide] | -16.5% | No tested substitutions in the linker region were well tolerated | −4.9% | 7.3% | 4% |
| 70 to 72 °C | O=C(NCCOCc1cccc(Cl)c1)c1c(Cl)cccc1Cl [Compound 72, 2,6-Dichloro-N-[2-(3-chloro-benzyloxy)-ethyl]-benzamide] | -5.1% | No tested substitutions in the linker region were well tolerated | −9.9% | 4.2% | 10.5% |
| 93 to 94 °C | O=C(NCCSCc1cccc(Cl)c1)c1c(C(F)(F)F)cccc1C(F)(F)F [Compound 74, N-[2-(3-Chloro-benzylsulfanyl)-ethyl]-2,6-bis-trifluoromethyl-benzamide] | 13.5% | not well tolerated | −4.2% | −0.4% | 6.2% |
| 104 to 106 °C | O=C(NCCSCc1ccc(Cl)cc1)c1c(Cl)cccc1Cl [Compound 77, 2,6-Dichloro-N-[2-(4-chloro-benzylsulfanyl)-ethyl]-benzamide] | 36.5% | loss of activity | −6.4% | 3% | 21.8% |

The remaining lines, values behind:

| SMILES | melting point | inhibition at 30 µM (Aβ secretion) | Aβ secretion inhibiting activity (structure activity summary) (Aβ secretion) | Cell protein (% decrease) 10 μM Mean (H4βAPP695 wt cells) | Cell protein (% decrease) 30 μM Mean (H4βAPP695 wt cells) | inhibition at 10 µM (Aβ secretion) |
| --- | --- | --- | --- | --- | --- | --- |
| O=C(NCCSCc1cccc(Cl)c1)c1c(Br)cccc1Br [Compound 54, 2,6-Dibromo-N-[2-(3-chloro-benzylsulfanyl)-ethyl]-benzamide] | 55 to 57 °C | 83.4% | maintained activity | 6.7% | 20.8% | – |
| O=C(NCCSCc1cccc(Br)c1)c1c(Br)cccc1Br [Compound 55, 2,6-Dibromo-N-[2-(3-bromo-benzylsulfanyl)-ethyl]-benzamide] | 70 to 72 °C | 87.3% | maintained activity | 9.8% | 23.9% | – |
| O=C(NCCSCc1cc(O)cc(O)c1)c1c(Cl)cccc1Cl [Compound 59, 2,6-Dichloro-N-[2-(3,5-dihydroxy-benzylsulfanyl)-ethyl]-benzamide] | 55 to 57 °C | 17.2% | lost activity | −0.4% | −0.7% | 3.1% |
| COc1cc(CSCCNC(=O)c2c(Cl)cccc2Cl)cc(OC)c1 [Compound 60, 2,6-Dichloro-N-[2-(3,5-dimethoxy-benzylsulfanyl)-ethyl]-benzamide] | 46 to 47 °C | 80.4% | could be tolerated | 2% | −8.7% | 47.9% |
| N#Cc1c(Cl)cccc1CSCCNC(=O)c1c(Cl)cccc1Cl [Compound 62, 2,6-Dichloro-N-[2-(3-chloro-2-cyano-benzylsulfanyl)-ethyl]-benzamide] | 166 to 168 °C | 52.3% | – | 3.5% | 1.3% | 48.7% |
| O=C(NCCSCc1cccc(Cl)c1)c1ccccc1 [Compound 63, N-[2-(3-Chloro-benzylsulfanyl)-ethyl]-benzamide] | 75 to 76 °C | 10.7% | not well tolerated | 2.4% | −4.5% | 0.3% |
| O=C(NCCS(=O)(=O)Cc1cccc(Cl)c1)c1c(Cl)cccc1Cl [Compound 66, 2,6-Dichloro-N-[2-(3-chloro-phenylmethanesulfonyl)-ethyl]-benzamide] | 156 to 158 °C | 9.3% | No tested substitutions in the linker region were well tolerated | −2.2% | −3.8% | 8.9% |
| O=C(NCCSCc1cccc(Cl)c1)c1c(F)cccc1F [Compound 67, N-[2-(3-Chloro-benzylsulfanyl)-ethyl]-2,6-difluoro-benzamide] | 41 to 43 °C | 21.6% | not well tolerated | 5.1% | 8.1% | 4.9% |
| O=C(NC1CC1)c1cccc(CSCCNC(=O)c2c(Cl)cccc2Cl)c1 [Compound 68, 2,6-Dichloro-N-[2-(3-cyclopropylcarbamoyl-benzylsulfanyl)-ethyl]-benzamide] | 42 to 43 °C | 11% | did not yield good activity | 0% | −1% | 1.9% |
